US20150250713A1, “Pharmaceutical Composition” (CIPLA LIMITED, priority 2012, published 2015)

Test: Moisture uptake of HFA propellants
Assay type: physicochemical
Conditions: ratio versus HFA-227 (measured values)

FCC(F)(F)F [HFA-134 (a), 1,1,1,2-tetrafluoroethane]
moisture uptake compared to HFA-227: six times higher
